Structures are written as SMILES.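 Five concentrations, 48 hours, 96-well plates. GI50: concentration for 50% inhibition of growth. TGI marks complete inhibition of growth.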 Bounds are passed on as bounds.

Test systems include 786-0 renal; MDA-MB-435; NCI-H226 lung; U251 CNS; OVCAR-4 ovarian; SF-268 CNS; A549 NSCLC; SF-539 CNS; HOP-92 NSCLC; HOP-62 NSCLC.
Holding throughout (test): NCI tumour cell line growth inhibition, 48 h

`CCOc1ccccc1NC(=O)c1cc2ccccc2cc1O`: the GI50 in the assay on 786-0 renal is 3.34 µM; with MDA-MB-435 it was 2.38 µM; in the assay with NCI-H226 lung, 2.81 µM; in the assay on U251 CNS it was 3.11 µM; with OVCAR-4 ovarian, 3.69 µM; in the assay on SF-268 CNS, 3.91 µM. In addition, the GI50 is 3.19 µM in the assay with A549 NSCLC, 3.05 µM in the assay with SF-539 CNS, 1.72 µM in the assay with HOP-92 NSCLC and 3.32 µM with HOP-62 NSCLC. The TGI in the assay on 786-0 renal came out at 9.13 µM; in the assay with MDA-MB-435, 7.08 µM; in the assay on NCI-H226 lung it was 10.8 µM; in the assay with U251 CNS, 11.6 µM; in the assay on OVCAR-4 ovarian it was 19.6 µM; in the assay on SF-268 CNS, 20.4 µM. Besides, the TGI with A549 NSCLC was 11.6 µM; in the assay with SF-539 CNS it was 15.8 µM; in the assay on HOP-92 NSCLC, 5.08 µM; in the assay with HOP-62 NSCLC it was 16.7 µM.
Regarding `O=S(=O)(Cc1ccc(Cl)cc1Cl)c1ccc(Cl)cc1`, the GI50 is 1.84 µM with 786-0 renal; 0.13 µM in the assay on MDA-MB-435; 4.52 µM in the assay with NCI-H226 lung; 0.496 µM with U251 CNS; 5.73 µM with OVCAR-4 ovarian; 0.827 µM in the assay on SF-268 CNS. In addition, the GI50 with A549 NSCLC is 0.693 µM; in the assay on SF-539 CNS it was 0.47 µM; in the assay with HOP-92 NSCLC, 20.8 µM; in the assay on HOP-62 NSCLC it was 3.36 µM. The TGI with 786-0 renal is more than 100 µM; in the assay with MDA-MB-435, 0.671 µM; in the assay with NCI-H226 lung, more than 100 µM; in the assay on U251 CNS it was more than 100 µM; in the assay with OVCAR-4 ovarian, more than 100 µM; in the assay on SF-268 CNS, more than 100 µM. The TGI is more than 100 µM in the assay on A549 NSCLC, 3.72 µM in the assay with SF-539 CNS, more than 92.5 µM in the assay on HOP-92 NSCLC and more than 100 µM with HOP-62 NSCLC.
As for `O=c1ccc(N=Nc2ccc([N+](=O)[O-])cc2)ccc1O`, the GI50 was 5.99 µM with 786-0 renal; 9.14 µM with MDA-MB-435; 12.7 µM in the assay with NCI-H226 lung; 4.46 µM in the assay with U251 CNS; 5.17 µM in the assay with OVCAR-4 ovarian; 4.18 µM with SF-268 CNS. The GI50 was 6.8 µM in the assay on A549 NSCLC, 4.38 µM in the assay on SF-539 CNS, 4.9 µM in the assay on HOP-92 NSCLC and 18.1 µM with HOP-62 NSCLC. Also, the TGI with 786-0 renal, in the assay on MDA-MB-435, in the assay with NCI-H226 lung, in the assay on U251 CNS, in the assay on OVCAR-4 ovarian and with SF-268 CNS was more than 100 µM in each case. Moreover, the TGI with A549 NSCLC, in the assay with SF-539 CNS, in the assay with HOP-92 NSCLC and in the assay on HOP-62 NSCLC was more than 100 µM throughout.
On to `Cn1ccnc1C(=O)/C=C/c1ccc(C(=O)Nc2ccc(S(F)(F)(F)(F)F)cc2)cc1`, for which the GI50 in the assay with 786-0 renal is 3.86 µM; in the assay with MDA-MB-435, 3.04 µM; in the assay with NCI-H226 lung, 6.57 µM; with U251 CNS, 0.506 µM; with OVCAR-4 ovarian, 0.704 µM; in the assay on SF-268 CNS, 3.09 µM. The GI50 was 3.81 µM in the assay on A549 NSCLC, 2.4 µM in the assay with SF-539 CNS, 3.03 µM in the assay with HOP-92 NSCLC and 4.05 µM in the assay on HOP-62 NSCLC. Moreover, the TGI with 786-0 renal, in the assay with MDA-MB-435, in the assay with NCI-H226 lung, in the assay with U251 CNS, in the assay on OVCAR-4 ovarian and in the assay on SF-268 CNS was more than 14.3 µM throughout. Also, the TGI with A549 NSCLC was more than 14.3 µM; with SF-539 CNS, 6.45 µM; in the assay on HOP-92 NSCLC, more than 14.3 µM; in the assay with HOP-62 NSCLC, more than 14.3 µM.
Take `Cc1ccc2c(c1)c1nc3cc(C)c(C)cc3nc1n2CCN(C)C`: the GI50 in the assay on 786-0 renal was 2.56 µM; in the assay on MDA-MB-435 it was 1.98 µM; in the assay with NCI-H226 lung, 1.86 µM; with U251 CNS, 2.3 µM; with OVCAR-4 ovarian, 3.43 µM; in the assay with SF-268 CNS it was 2.51 µM. Also, the GI50 with A549 NSCLC was 1.79 µM; in the assay on SF-539 CNS, 2.15 µM; with HOP-92 NSCLC, 1.09 µM; in the assay on HOP-62 NSCLC, 1.78 µM. For the same compound, the TGI was 10.8 µM in the assay with 786-0 renal; 4.42 µM with MDA-MB-435; 4.69 µM in the assay on NCI-H226 lung; 8.85 µM in the assay on U251 CNS; 19.6 µM with OVCAR-4 ovarian; 7.65 µM in the assay with SF-268 CNS. Moreover, the TGI was determined as 4.72 µM with A549 NSCLC, 6.13 µM in the assay on SF-539 CNS, 4.42 µM in the assay on HOP-92 NSCLC and 7.26 µM in the assay on HOP-62 NSCLC.
As for `CCCCCCc1cc2cc(-c3nc4ccccc4[nH]3)c(=Nc3ccccc3C)oc2cc1O`, the GI50 in the assay with 786-0 renal is 1.88 µM; with MDA-MB-435 it was 2.16 µM; in the assay with NCI-H226 lung, 2.55 µM; in the assay on U251 CNS, 1.71 µM; in the assay on OVCAR-4 ovarian it was 1.69 µM; with SF-268 CNS, 2.65 µM. Also, the GI50 in the assay on A549 NSCLC is 2.44 µM; in the assay on SF-539 CNS, 1.83 µM; in the assay with HOP-92 NSCLC, 0.492 µM; in the assay with HOP-62 NSCLC it was 1.95 µM. Also, the TGI was determined as 3.43 µM with 786-0 renal; 5.05 µM in the assay on MDA-MB-435; 10.3 µM with NCI-H226 lung; 3.3 µM in the assay with U251 CNS; 3.37 µM in the assay with OVCAR-4 ovarian; 8.45 µM in the assay with SF-268 CNS. For the same compound, the TGI in the assay on A549 NSCLC was found to be 6.29 µM; with SF-539 CNS it was 3.75 µM; in the assay on HOP-92 NSCLC, 5.12 µM; with HOP-62 NSCLC, 4.57 µM.
`CCCCOc1ccc(NC(=O)n2nc(N)c3ccccc32)cc1`: the GI50 in the assay with 786-0 renal is 19.7 µM; with MDA-MB-435, 22.8 µM; with NCI-H226 lung, 21 µM; with U251 CNS, 30.9 µM; in the assay on OVCAR-4 ovarian it was 26.6 µM; in the assay on SF-268 CNS, 20.3 µM. Also, the GI50 in the assay on A549 NSCLC was 21.6 µM; in the assay on SF-539 CNS, 17.2 µM; in the assay on HOP-92 NSCLC, 17.7 µM; in the assay on HOP-62 NSCLC, 24.4 µM. Besides, the TGI in the assay on 786-0 renal is 48.4 µM; in the assay on MDA-MB-435, more than 65.1 µM; in the assay on NCI-H226 lung, more than 85.2 µM; with U251 CNS, more than 100 µM; in the assay with OVCAR-4 ovarian, more than 100 µM; in the assay on SF-268 CNS, more than 100 µM. Also, the TGI in the assay on A549 NSCLC was more than 87.9 µM; in the assay on SF-539 CNS it was 35.7 µM; in the assay with HOP-92 NSCLC, 54.1 µM; in the assay with HOP-62 NSCLC, 60.6 µM.
